Data set [1] concerns the target T1, mammalian tubulin (Sus scrofa, UniProt P02550+P02554).
T1 construct: purchased Cytoskeleton Inc. BK011P
The data set can be described thus: Mammalian tubulin polymerization assay kit. Type of data set: biochemical, porcine. As to conditions: compounds at 1 × MIC, 1 mM GTP, 37°C. How it is done: The effects of the cinnamaldehyde analogs were analyzed for off-target effects on mammalian tubulin using the protocol as previously described ([Chai et al., 2020]), using a Tubulin Polymerization Assay Kit (Cytoskeleton Inc., BK011P, Denver, CO, United States), following the protocol described by the manufacturer.
Controls included 20 μM paclitaxel (promoter of polymerization), 20 μM vinblastine (inhibitor of polymerization) and 2.5% (v/v) DMSO (solvent control). The reaction was initiated by the addition of 1 mM GTP at 37°C. The fluorescence was read for 2,000 s using PerkinElmer Enspire® plate reader.
FIGURE 7 The effect of the LXC compounds on the polymerization of mammalian tubulin. (A–F) The polymerizing activity of the LXC compounds on porcine tubulin was assessed using a commercial Tubulin Polymerization Assay Kit. The LXC compounds at 1 × MIC were pre-incubated with tubulin on ice before the reaction was initiated by the addition of 1 mM GTP. The fluorescence was measured as a function of time at A360 and A420 nm excitation and emission wavelengths, respectively, at the constant temperature of 37°C. DMSO 2.5% (v/v) (brown curves) was used as vehicle control while paclitaxel (polymerization stabilizer; blue curves) and vinblastine (polymerization inhibitor; green curves) at 20 μM each were also included as controls.

For data set [2], the system named is A. baumannii ATCC 19606. The data set can be described thus: Checkerboard titration MIC with efflux pump inhibitor PAβN. Type of data set: cell-based. The following applies: Acinetobacter baumannii, ATCC19606, A. baumannii ATCC 19606. How it is done:
To determine if expression of efflux pumps would play a role in the efflux of the cinnamaldehyde derivatives leading to poor antimicrobial activity, interactions between PAβN and the LXC compounds were assessed by checkerboard titration assay. The checkerboard titration assay was performed as previously described ([Chai et al., 2020]). Briefly, PAβN was added in the first row and serially diluted in CaMH broth along the ordinate of the microwell plate while the LXC compounds were serially diluted along the abscissa. Bacterial suspension for A. baumannii ATCC 19606 or AB UW 5075 100 μL/well were added as described for the MIC assay. Bacterial growth was assessed at A600 nm between time 0 and 18 h (Cytation5® Cell Imaging Multi-Mode Reader, Bio-Tek®).

In data set [3] the test system is HepG2 (ATCC HB-8065) cells. The data set can be described thus: RealTime-Glo MT cell viability assay. The format is cell-based. As to conditions: 24 h. How it is done:
The effects of the cinnamaldehyde analogs were analyzed for off-target effects on mammalian cells using the protocol as previously described ([Chai et al., 2020]) with the following modifications. In vitro cytotoxicity was assessed in HepG2 (ATCC HB-8065) cells using the RealTime-Glo™ MT Cell Viability Assay Kit (Promega) as described previously ([Wang et al., 2017]). The LXC compounds were tested at 1 × and 2 × MIC using a final DMSO concentration of 2% (v/v) in the assay. […] The luminescence signal was read at 5-min intervals over 24 h in a Cytation5® Cell Imaging Multi-Mode Reader (Bio-Tek®), at 37°C in the presence of 5% CO2.
FIGURE 8 The LXC compounds are generally non-toxic at a concentration of 1 × MIC. (A–F) Real-time liver cell viability measurements for HepG2 after treatment with 1 × (pink line) and 2 × (brown line) MIC values. […] Cell viability was measured every 5 min for 24 h at 37°C and 5% CO2 on a Cytation5® Cell Imaging Multi-Mode Reader using the RealTime-Glo™ MT Cell Viability Assay reagent. The results are presented in mean ± SEM (hourly SEM data was presented).

The test system of data set [4] is Enterobacter aerogenes ATCC 13408. Put plainly: Antibacterial activity (MIC), microbroth dilution. Type of data set: cell-based. The following applies: Klebsiella aerogenes, ATCC13408, read-out: Antibacterial activity (MIC). As to the method:
(§1) Reference bacterial strains were obtained from the American Type Culture Collection (ATCC). Vancomycin resistant Enterococcus faecium (VRE 734, wastewater isolate from the Venter Laboratory Collection) was isolated on Bile Esculin agar (Oxoid, Australia) containing 6 μg/mL vancomycin and identified using MALDI-TOF mass spectrometry (Bruker, Preston, Victoria, Australia, Australian Center for Antimicrobial Resistance Ecology). The Pseudomonas aeruginosa WT PAO1 and Escherichia coli with deletions of both acrA and acrB genes encoding drug efflux pumps were obtained from the Venter laboratory stock ([Welch et al., 2010]). The protocol for microbial growth was adopted from the European Committee on Antimicrobial Susceptibility Testing (EUCAST) ([European Committee for Antimicrobial Susceptibility Testing, 2016]).
(§2) Non-fastidious bacteria and clinical isolates were maintained in Mueller Hinton (MH) broth (Acumedia, United Kingdom) supplemented with 15% (v/v) glycerol (Chem-Supply, Australia), cultured on Mueller Hinton (MH) agar (Acumedia, United Kingdom) plated and incubated at 37°C. Fastidious bacteria were maintained in Brain Heart Infusion (BHI) broth (Acumedia, United Kingdom) supplemented with 15% (v/v) glycerol at −80°C. The fastidious bacteria were cultured on MH agar plates supplemented with 5% (v/v) lysed horse blood and 3% (v/v) fetal bovine serum and incubated at 30°C in the presence of 5% CO2. Drug susceptibility assays were carried out with the non-fastidious cultures grown in cation-adjusted Mueller Hinton (CaMH) broth (Becton Dickinson, France). Streptococcus pyogenes was grown in CaMH broth supplemented with 5% (v/v) lysed horse blood and 3% (v/v) fetal bovine serum whereas Enterococcus faecium was grown in BHI broth.
(§3) The minimum inhibitory concentrations (MICs) for all six compounds were determined using the microbroth dilution protocol as per EUCAST with an inoculum of approximately […] in an exponential growth phase ([European Committee for Antimicrobial Susceptibility Testing, 2016]). Bacterial suspension, 100 μL/well, was added to 100 μL/well of drug dilutions, then incubated for 18 h at 37°C. Fastidious bacterial suspensions were instead incubated at 30°C in the presence of 5% CO2. Bacterial growth was assessed by measuring the change in A600 nm between time 0 and 18 h (Cytation5® Cell Imaging Multi-Mode Reader, Bio-Tek®). Levofloxacin was used as the positive control. Assays were completed in duplicate in at least three independent experiments.
On the technique in general: Dilution methods test growth across graded concentrations, often in twofold steps.

The subject of data set [5] is Methicillin resistant Staphylococcus aureus. Put plainly: Antibacterial activity (MIC), microbroth dilution. Type of data set: cell-based. The following applies: Staphylococcus aureus, ATCC 43300 / MRSA, read-out: Antibacterial activity (MIC). How it is done:
as §1, §2, §3

Data set [6] concerns Pseudomonas aeruginosa ATCC 27853. Put plainly: Antibacterial activity (MIC), microbroth dilution. Type of data set: cell-based. The following applies: Pseudomonas aeruginosa, ATCC27853, read-out: Antibacterial activity (MIC). How it is done: as §1, §2, §3
The subject of data set [7] is A. baumannii XDR UW 5075. The data set can be described thus: MIC, microbroth dilution (EUCAST). The following applies: Acinetobacter baumannii, XDRUW5075, 18 h. The format is cell-based, Acinetobacter baumannii. As to the method: as §1, §2, §3
Data set [8] relates to A. baumannii ATCC 19606. Put plainly: MIC, microbroth dilution (EUCAST). Type of data set: cell-based, Acinetobacter baumannii. As to conditions: Acinetobacter baumannii, ATCC19606, 18 h. As to the method: as §1, §2, §3

The structures appear in SMILES notation. Values after ≈ are worked out from the molar mass of the structure shown. “Also recorded” adds a separate entry of the source. A value given as a limit tells only on which side of the number the result lay.

A word on the MIC: it is the smallest concentration in the dilution series that meets the test's criterion for growth inhibition.

T1 sequence (P02550 whole entry): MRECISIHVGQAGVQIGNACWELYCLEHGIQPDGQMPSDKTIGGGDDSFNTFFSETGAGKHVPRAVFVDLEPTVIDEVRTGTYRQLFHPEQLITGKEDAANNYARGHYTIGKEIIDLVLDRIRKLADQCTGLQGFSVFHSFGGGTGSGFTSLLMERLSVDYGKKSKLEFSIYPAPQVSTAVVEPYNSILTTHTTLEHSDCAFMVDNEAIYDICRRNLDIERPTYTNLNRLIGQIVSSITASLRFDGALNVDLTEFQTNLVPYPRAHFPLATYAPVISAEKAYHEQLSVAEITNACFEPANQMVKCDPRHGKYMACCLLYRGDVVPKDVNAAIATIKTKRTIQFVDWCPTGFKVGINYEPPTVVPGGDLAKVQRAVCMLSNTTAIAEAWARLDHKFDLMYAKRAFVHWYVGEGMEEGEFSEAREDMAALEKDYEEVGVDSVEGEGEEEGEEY
T1 sequence (P02554 whole entry): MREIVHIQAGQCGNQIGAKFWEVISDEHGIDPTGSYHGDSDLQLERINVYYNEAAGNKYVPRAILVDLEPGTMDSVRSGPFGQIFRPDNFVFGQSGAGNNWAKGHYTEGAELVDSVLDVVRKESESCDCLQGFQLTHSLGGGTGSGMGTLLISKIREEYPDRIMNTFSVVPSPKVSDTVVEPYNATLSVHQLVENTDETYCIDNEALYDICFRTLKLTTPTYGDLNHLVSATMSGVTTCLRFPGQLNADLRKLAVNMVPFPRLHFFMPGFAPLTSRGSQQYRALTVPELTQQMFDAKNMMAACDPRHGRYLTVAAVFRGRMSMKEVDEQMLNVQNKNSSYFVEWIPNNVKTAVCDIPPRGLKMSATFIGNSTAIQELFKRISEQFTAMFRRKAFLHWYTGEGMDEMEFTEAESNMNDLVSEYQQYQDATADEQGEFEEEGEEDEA

In the case of `Cc1nc2ccccc2n1C(=O)/C=C/c1ccc(Cl)cc1Cl` [Compound 6], the “Effect on tubulin polymerization” value in data set [1] is recorded as “devoid of tubulin polymerization activity; also recorded: lack of activity against the tubulin counter-target”. For the same compound, the minimal inhibitory concentration (MIC) was 64 µg/mL in data set [2] (+PAβN 0 μg/mL); 32 µg/mL in data set [2] (+PAβN 50 μg/mL); 16 µg/mL in data set [2] (+PAβN 100 μg/mL); 8 µg/mL in data set [2] (+PAβN 200 μg/mL); over 256 µg/mL in data set [4]; 64 µg/mL (≈ 193 µM) in data set [5]. For the same compound, the MIC in data set [6] was over 256 µg/mL; in data set [7], over 128 µg/mL; in data set [8] it was 64 µg/mL (≈ 193 µM). The “Cytotoxicity, HepG2 cell viability” value in data set [3] (2 × MIC) is “devoid of hemolytic activity and cytotoxicity against mammalian cells in vitro; also recorded: devoid of undesirable toxicity”.

Consider `COc1ccc(/C=C/C(=O)n2c(C)nc3ccccc32)cc1OC` [Compound 5], for which the “Effect on tubulin polymerization” value in data set [1] is recorded as “devoid of tubulin polymerization activity”. The MIC in data set [2] (+PAβN 0 μg/mL) is 256 µg/mL; in data set [2] (+PAβN 50 μg/mL), 128 µg/mL; in data set [2] (+PAβN 100 μg/mL), 8 µg/mL; in data set [2] (+PAβN 200 μg/mL), 8 µg/mL; in data set [4], over 256 µg/mL; in data set [5], over 256 µg/mL. Moreover, the minimal inhibitory concentration (MIC) in data set [6] was over 256 µg/mL; in data set [7], over 128 µg/mL; in data set [8], 256 µg/mL (≈ 794 µM). Further, the “Cytotoxicity, HepG2 cell viability” value in data set [3] (1 × MIC) is “displayed cytotoxicity”.

On to `Cc1nc2ccccc2n1C(=O)/C=C/c1ccc(Cl)cc1` [Compound 3], for which the “Effect on tubulin polymerization” value in data set [1] is “undesirable inhibitory activity”. The MIC in data set [2] (+PAβN 0 μg/mL) is 128 µg/mL; in data set [2] (+PAβN 50 μg/mL) it was 128 µg/mL; in data set [2] (+PAβN 100 μg/mL), 8 µg/mL; in data set [2] (+PAβN 200 μg/mL), 8 µg/mL; in data set [4] it was over 256 µg/mL; in data set [5], over 256 µg/mL. The MIC is over 256 µg/mL in data set [6], over 128 µg/mL in data set [7] and 128 µg/mL (≈ 431 µM) in data set [8]. Further, the “Cytotoxicity, HepG2 cell viability” value in data set [3] (2 × MIC) is recorded as “cytotoxicity was also observed”.

Consider `Cc1nc2ccccc2n1C(=O)/C=C/c1ccc(Br)cc1` [Compound 4], for which, in data set [1], the “Effect on tubulin polymerization” value was “undesirable inhibitory activity against tubulin”. Besides, the minimal inhibitory concentration (MIC) in data set [2] (+PAβN 0 μg/mL) is 32 µg/mL; in data set [2] (+PAβN 50 μg/mL) it was 32 µg/mL; in data set [2] (+PAβN 100 μg/mL), 8 µg/mL; in data set [2] (+PAβN 200 μg/mL) it was 8 µg/mL; in data set [4], over 256 µg/mL; in data set [5], over 256 µg/mL. The MIC in data set [6] was 256 µg/mL (≈ 750 µM); in data set [7], over 128 µg/mL; in data set [8] it was 32 µg/mL (≈ 93.8 µM). In addition, the “Cytotoxicity, HepG2 cell viability” value in data set [3] (2 × MIC) is reported as “devoid of undesirable toxicity”.

With `Cc1nc2ccccc2n1C(=O)/C=C/c1ccc(F)cc1` [Compound 2], in data set [1], the “Effect on tubulin polymerization” value is on record as “devoid of tubulin polymerization activity”. Also, the MIC was 128 µg/mL in data set [2] (+PAβN 0 μg/mL); 128 µg/mL in data set [2] (+PAβN 50 μg/mL); 32 µg/mL in data set [2] (+PAβN 100 μg/mL); 16 µg/mL in data set [2] (+PAβN 200 μg/mL); over 256 µg/mL in data set [4]; over 256 µg/mL in data set [5]. The minimal inhibitory concentration (MIC) in data set [6] is over 256 µg/mL; in data set [7] it was over 128 µg/mL; in data set [8] it was 128 µg/mL (≈ 457 µM). Also, in data set [3] (2 × MIC), the “Cytotoxicity, HepG2 cell viability” value was “cytotoxicity was also observed”.

In the case of `Cc1nc2ccccc2n1C(=O)/C=C/c1ccccc1` [Compound 1], the “Effect on tubulin polymerization” value in data set [1] was “undesirable inhibitory activity”. In addition, the minimal inhibitory concentration (MIC) was 128 µg/mL in data set [2] (+PAβN 0 μg/mL); 128 µg/mL in data set [2] (+PAβN 50 μg/mL); 64 µg/mL in data set [2] (+PAβN 100 μg/mL); 32 µg/mL in data set [2] (+PAβN 200 μg/mL); over 256 µg/mL in data set [4]; 256 µg/mL (≈ 976 µM) in data set [5]. The MIC in data set [6] was over 256 µg/mL; in data set [7] it was over 128 µg/mL; in data set [8], 128 µg/mL (≈ 488 µM). Besides, in data set [3] (2 × MIC), the “Cytotoxicity, HepG2 cell viability” value was “cytotoxicity was also observed”.

The record behind these values is publication PMC9465178, “Cinnamaldehyde derivatives act as antimicrobial agents against Acinetobacter baumannii through the inhibition of cell division” (Frontiers in Microbiology, 2022).
